Assay results: US20050266509A1, “Interaction of NMDA receptor with protein tyrosine phosphatase” (AGY Therapeutics, Inc., priority 2003, published 2005)
pIC50: −log10 of the molar value. “Also recorded” adds a separate entry of the source.

How the values were obtained:
CD45 = molecular target: T1, CD45 (Homo sapiens, UniProt P08575); experiment: FRET phosphatase assay, CD45; assay type: biochemical
T1 sequence (P08575 26-1306): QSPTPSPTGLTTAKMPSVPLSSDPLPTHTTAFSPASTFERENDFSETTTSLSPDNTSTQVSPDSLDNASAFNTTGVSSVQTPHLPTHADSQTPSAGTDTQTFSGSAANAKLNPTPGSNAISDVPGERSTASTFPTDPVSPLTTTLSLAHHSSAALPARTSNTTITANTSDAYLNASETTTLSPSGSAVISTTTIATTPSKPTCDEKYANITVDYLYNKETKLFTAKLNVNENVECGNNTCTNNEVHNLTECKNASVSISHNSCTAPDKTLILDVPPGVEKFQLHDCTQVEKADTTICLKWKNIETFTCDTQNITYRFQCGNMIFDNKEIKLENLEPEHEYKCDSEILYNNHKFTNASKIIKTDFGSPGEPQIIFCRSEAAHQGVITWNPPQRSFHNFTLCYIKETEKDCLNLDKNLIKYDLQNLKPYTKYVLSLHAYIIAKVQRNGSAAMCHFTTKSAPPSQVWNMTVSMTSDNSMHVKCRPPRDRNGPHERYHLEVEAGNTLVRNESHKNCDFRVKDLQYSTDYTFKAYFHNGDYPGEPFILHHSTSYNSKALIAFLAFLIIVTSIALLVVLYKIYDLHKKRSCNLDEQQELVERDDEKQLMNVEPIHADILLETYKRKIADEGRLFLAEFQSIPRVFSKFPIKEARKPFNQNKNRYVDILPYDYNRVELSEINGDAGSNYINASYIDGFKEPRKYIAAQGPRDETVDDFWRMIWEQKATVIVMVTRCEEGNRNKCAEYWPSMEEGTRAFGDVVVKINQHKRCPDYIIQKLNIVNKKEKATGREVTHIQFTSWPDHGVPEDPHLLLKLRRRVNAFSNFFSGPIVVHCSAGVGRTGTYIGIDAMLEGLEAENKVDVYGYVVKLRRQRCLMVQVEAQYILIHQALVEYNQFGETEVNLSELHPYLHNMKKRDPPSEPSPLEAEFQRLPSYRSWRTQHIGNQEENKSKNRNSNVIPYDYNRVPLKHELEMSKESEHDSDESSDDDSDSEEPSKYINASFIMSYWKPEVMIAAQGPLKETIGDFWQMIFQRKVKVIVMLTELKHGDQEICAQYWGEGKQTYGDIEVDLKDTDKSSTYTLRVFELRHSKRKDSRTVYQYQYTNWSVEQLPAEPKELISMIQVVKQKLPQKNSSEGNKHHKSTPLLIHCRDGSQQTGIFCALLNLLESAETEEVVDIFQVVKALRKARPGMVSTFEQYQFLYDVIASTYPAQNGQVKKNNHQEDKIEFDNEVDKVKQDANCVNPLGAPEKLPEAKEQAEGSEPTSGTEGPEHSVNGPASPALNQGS
Experimental: (§1) For the enzyme activity assay, 2.5 μl of compound, 12.5 μl of enzyme, and 10 μl of substrate (separated by air gaps) are added to columns 3 through 24 by the Biomek FX in a single dispense. After the dispense, the tips are washed with DMSO and water for re-use between each quadrant. Once the assay plates are set up, they are incubated at 27° C. for 45 minutes. Then 20 μl of detection buffer is added to stop the reaction and to allow the Europium antibody (Eu-Ab) and streptavidin-APC to bind to the substrate.
(§2) The plates are then placed in the plate reader, an Analyst HT. Excitation light at 360 nm is used to excite the Europium antibody with an emission at 620 nm. Fluorescence resonance energy transfer (FRET) from Eu-Ab to APC will only occur when they are in close proximity. Therefore, when an APC emission is observed at 665 nm the enzyme has been inhibited from removing the phosphate group from the substrate. The FRET assay is time-resolved (TR), where there is a delay between excitation light and collection of emission signals. This reduces the amount of stray light created by short-lived fluorescing molecules. The Analyst HT measures APC and Europium emission signals and calculates the ratio between the two intensities. Typical intensities for the Europium is ˜2000 and APC is ˜600.
(§3) The following compounds were tested by FRET against the listed phosphatases, and the IC50 were obtained. […]

PTPB = PTPB (Homo sapiens, UniProt P23467); experiment: FRET phosphatase assay, PTPB; assay type: biochemical
PTPB, sequence (P23467 1643-1997 limits assumed): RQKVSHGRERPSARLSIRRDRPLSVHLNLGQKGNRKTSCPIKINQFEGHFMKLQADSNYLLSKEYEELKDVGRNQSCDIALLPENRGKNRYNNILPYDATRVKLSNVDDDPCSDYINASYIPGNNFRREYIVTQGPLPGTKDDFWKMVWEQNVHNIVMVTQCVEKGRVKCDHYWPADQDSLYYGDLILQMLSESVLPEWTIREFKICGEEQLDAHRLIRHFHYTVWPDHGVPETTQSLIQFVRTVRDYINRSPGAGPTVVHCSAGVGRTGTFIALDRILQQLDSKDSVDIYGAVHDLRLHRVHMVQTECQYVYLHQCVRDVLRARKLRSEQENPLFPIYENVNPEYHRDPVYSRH
Experimental: as §1, §2, §3

T Cell = molecular target: T2, T Cell (Homo sapiens, UniProt P17706); experiment: FRET phosphatase assay, T Cell; assay type: biochemical
T2 sequence (P17706 1-415): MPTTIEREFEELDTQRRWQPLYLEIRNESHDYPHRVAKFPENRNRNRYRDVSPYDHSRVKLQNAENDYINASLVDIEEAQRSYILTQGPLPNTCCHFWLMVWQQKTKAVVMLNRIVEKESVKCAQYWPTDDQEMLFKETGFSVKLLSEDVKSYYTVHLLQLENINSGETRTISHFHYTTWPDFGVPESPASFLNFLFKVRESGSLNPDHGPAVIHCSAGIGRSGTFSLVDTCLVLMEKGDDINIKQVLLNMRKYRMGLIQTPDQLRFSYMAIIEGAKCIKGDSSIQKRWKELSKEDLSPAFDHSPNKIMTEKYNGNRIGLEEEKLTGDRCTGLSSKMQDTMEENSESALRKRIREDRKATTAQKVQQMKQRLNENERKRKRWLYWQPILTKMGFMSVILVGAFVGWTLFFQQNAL
Experimental: as §1, §2, §3

PTPMEG [1] = molecular target: T3, PTPMEG (Homo sapiens, UniProt P29074); experiment: TR-FRET phosphatase activity assay, PTPMEG; assay type: biochemical
T3 construct: Asp-Ser-6xHis (N); made in house; host or cells: E. coli BL21(DE3)
T3 sequence (P29074 655-911 limits assumed): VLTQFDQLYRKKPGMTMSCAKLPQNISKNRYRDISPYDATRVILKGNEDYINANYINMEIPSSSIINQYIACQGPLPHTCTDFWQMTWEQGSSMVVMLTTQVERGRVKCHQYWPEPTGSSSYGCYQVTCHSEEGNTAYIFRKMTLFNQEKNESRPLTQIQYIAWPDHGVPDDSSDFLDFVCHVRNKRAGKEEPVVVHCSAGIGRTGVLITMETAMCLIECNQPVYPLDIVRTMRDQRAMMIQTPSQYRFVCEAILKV
Experimental: Expression and Purification of PTPMEG The DNA sequence encoding the C-terminal 326 residues of PTPMEG (phosphatase domain) was subcloned into the pET-17b vector (Novagen) between the Ndel and Xhol restriction sites. An N-terminal tag consisting of Asp-Ser-6×His was incorporated at the beginning of the protein sequence. Protein expression was performed in BL21(DE3) cells at 37° C. with a 4 hour 0.5 mM IPTG induction. The cells were harvested by centrifugation and stored at −80° C. until needed for protein purification. Protein purification consisted of cell lysis by sonication, immobilized metal affinity chromatography (IMAC) on a Ni^2+-NTA column (Qiagen), followed by hydrophobic interaction chromatography (HIC) on a phenyl sepharose column (Amersham Pharmacia Biotech) and/or ion exchange chromatography (IEC) on a Q sepharose column (Amersham Pharmacia Biotech). The purified 38.3 kDa protein was buffer exchanged into 50 mM HEPES, pH 7.5 and stored at −80° C.
Phosphatase Buffer: 50 mm HEPES, pH 8; 1 mM DDT; 2 mM EDTA; 0.01% Brij solution; 10 mM MgCl2. […]
The plates are then placed in the plate reader, an Analyst HT. […] Fluorescence resonance energy transfer (FRET) from Eu-Ab to APC will only occur when they are in close proximity. […]

mice = experiment: Amphetamine-induced hyperactivity model (open field); conditions: 5 mg/kg SC, 60 min recording period
PTPMEG [2] = molecular target: T4, PTPMEG (Homo sapiens, UniProt P29074); experiment: Western blot of Src/fyn Y418 phosphorylation in NR1/NR2B stable cell line transfected with active Src or fyn and PTPMEG; assay type: cell-based; conditions: 500 μM, 3 hours, 48 hrs post-transfection
T4 construct: expressed in transfected cells
T4 sequence (P29074 1-926): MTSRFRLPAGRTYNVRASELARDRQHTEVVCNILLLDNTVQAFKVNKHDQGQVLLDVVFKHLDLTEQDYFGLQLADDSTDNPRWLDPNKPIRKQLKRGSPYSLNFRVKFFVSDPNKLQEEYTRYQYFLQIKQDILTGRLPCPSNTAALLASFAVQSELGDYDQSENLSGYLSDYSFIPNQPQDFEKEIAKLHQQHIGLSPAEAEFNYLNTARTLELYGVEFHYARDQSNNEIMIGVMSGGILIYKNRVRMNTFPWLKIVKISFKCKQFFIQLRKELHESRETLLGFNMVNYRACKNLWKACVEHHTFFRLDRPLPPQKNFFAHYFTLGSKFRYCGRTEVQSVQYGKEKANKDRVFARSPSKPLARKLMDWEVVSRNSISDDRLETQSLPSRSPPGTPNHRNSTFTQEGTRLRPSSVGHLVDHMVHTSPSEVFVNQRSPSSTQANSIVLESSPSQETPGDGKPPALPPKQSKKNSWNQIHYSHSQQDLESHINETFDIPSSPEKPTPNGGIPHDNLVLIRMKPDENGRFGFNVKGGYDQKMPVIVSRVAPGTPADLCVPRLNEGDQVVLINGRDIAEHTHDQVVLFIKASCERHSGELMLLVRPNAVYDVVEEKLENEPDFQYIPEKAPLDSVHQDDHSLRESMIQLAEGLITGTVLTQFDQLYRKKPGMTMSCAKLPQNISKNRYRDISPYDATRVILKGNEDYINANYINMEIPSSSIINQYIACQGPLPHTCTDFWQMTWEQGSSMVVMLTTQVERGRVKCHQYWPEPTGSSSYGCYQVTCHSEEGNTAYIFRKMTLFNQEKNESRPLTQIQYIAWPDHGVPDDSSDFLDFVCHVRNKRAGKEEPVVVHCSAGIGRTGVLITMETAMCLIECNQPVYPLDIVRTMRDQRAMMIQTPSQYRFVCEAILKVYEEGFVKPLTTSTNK
Excerpt: PTPMEG Dephosphorylates Protein Kinases Src and fyn. A stable cell line expressing the NR1 and NR2B subunits of the NMDA receptor was transiently transfected with constitutive active Src Srcor constitutive active fyn (fyn Y530F, where the tyrosine at position 530 is substituted by a phenylalanine) and PTPMEG, from a full length PTPMEG (amino-terminal myc-tag, c-terminal HA tag) expression construct in the pRK5 vector, with a CMV-driven promoter.
48 hrs post-transfection the cells were stimulated with 500 μM sodium orthovanadate, a […] for 3 hours. Cells were lysed and analyzed by western blot using a Src/fyn specific phosphoantibody (from Biosource) that recognizes the residue Y418 critical for activity for both Src and fyn. In presence of PTPMEG (identified with a c-myc antibody from Upstate) there is a dephosphorylation of Src and fyn at position Y418. This dephosphorylation is reversed by sodium orthovanadate. A pan Src antibody that recognizes total Src and fyn is used as a loading control.

PTPMEG [3] = molecular target: T4, PTPMEG; experiment: Western blot of NR2B and Src phosphorylation in NR1/NR2B stable cell line transfected with active Src and PTPMEG; assay type: cell-based; conditions: 48 h post transfection
Experimental: A stable cell line, expressing the NMDA receptor subunit NR1 together with NR2B was transiently transfected with constitutive active Src kinase and PTPMEG, wildtype and dominant negative CS mutant, respectively. Control experiments included dephostatin, a generic tyrosine phosphatase inhibitor. 48 h post transfection cells were lysed and subsequently analyzed by western blot. In presence of the active wildtype PTPMEG phosphatase, both the NR2B subunit as well as Src kinase were dephosphorylated, shown in FIG. 3. […] NR2B phosphorylation by Src kinase was detected by an NR2B phosphospecific antibody. Dephosphorylation of NR2B and Src kinase was reversed by addition of dephostatin, and unaffected in presence of the dominant negative form of PTPMEG (CS). (FIG. 5)

O=C(O)CN1C(=O)c2cccc3cccc1c23 [AGY- 0041763]
pIC50 (CD45): < 3.30 | pIC50 (PTPB): < 3.30 | pIC50 (T Cell): < 3.30 | pIC50 (PTPMEG [1]): 6.25

C[C@H](N)Cc1ccccc1 [d-amphetamine]
Locomotion (total distance in the open field) (mice): significantly increases

[Na+].[Na+].[Na+].[O]=[V]([O-])([O-])[O-] [sodium orthovanadate]
Dephosphorylation of Src and fyn at position Y418 by PTPMEG (PTPMEG [2]): reversed

CN(N=O)c1cc(O)ccc1O [dephostatin]
Dephosphorylation of NR2B by PTPMEG (PTPMEG [3]; NR2B phosphospecific antibody western blot): reversed | Dephosphorylation of Src kinase (position 418) by PTPMEG (PTPMEG [3]; anti PY418 western blot): reversed; also recorded: restores phosphorylation
